In ChEMBL document CHEMBL1201862, “PubChem BioAssay data set” (2004):
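Assay format: 96-well plates, 48-hour exposure. Abbreviation: GI50, concentration required for 50% inhibition of growth.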 Active and inactive are the calls of the source. Cut-off read from the data, not from the text of the source: active = GI50 up to about 1.1 µM and inactive = higher.

Tests used:
Assay in all cases: NCI-60 cell line screen, 48 h
T47D = test system: T47D
HL-60 = test system: HL-60
IGROV-1 = test system: IGROV-1
NCI-H522 = test system: NCI-H522
OVCAR-8 = test system: OVCAR-8
OVCAR-3 = test system: OVCAR-3
RPMI-8226 = test system: RPMI-8226
NCI/ADR-RES = test system: NCI/ADR-RES
COLO 205 = test system: COLO 205
UACC-62 = test system: UACC-62
LOX IMVI = test system: LOX IMVI
NCI-H23 = test system: NCI-H23
U-251 = test system: U-251
OVCAR-5 = test system: OVCAR-5
OVCAR-4 = test system: OVCAR-4
HCT-116 = test system: HCT-116
SF-539 = test system: SF-539
NCI-H460 = test system: NCI-H460
DU-145 = test system: DU-145
SW-620 = test system: SW-620
PC-3 = test system: PC-3
BT-549 = test system: BT-549
A549 = test system: A549
Malme-3M = test system: Malme-3M
SK-OV-3 = test system: SK-OV-3
MCF7 = test system: MCF7
MDA-N = test system: MDA-N
HT-29 = test system: HT-29
RXF 393 = test system: RXF 393
SF-295 = test system: SF-295
MDA-MB-435 = test system: MDA-MB-435
SR = test system: SR
HOP-92 = test system: HOP-92
SN12C = test system: SN12C
786-0 = test system: 786-0
SNB-19 = test system: SNB-19
HOP-62 = test system: HOP-62
UACC-257 = test system: UACC-257
M14 = test system: M14
HCC 2998 = test system: HCC 2998
UO-31 = test system: UO-31
CAKI-1 = test system: CAKI-1
NCI-H226 = test system: NCI-H226
EKVX = test system: EKVX
SK-MEL-5 = test system: SK-MEL-5
KM12 = test system: KM12
ACHN = test system: ACHN
SK-MEL-2 = test system: SK-MEL-2
SF-268 = test system: SF-268
MOLT-4 = test system: MOLT-4
K562 = test system: K562
HCT-15 = test system: HCT-15
Hs-578T = test system: Hs-578T
CCRF-CEM = test system: CCRF-CEM
TK-10 = test system: TK-10

## Cc1ccc(O)c(C2=CC(c3cccc(Cl)c3)SC(=N)N2)c1 (stereo not given)
T47D
  GI50: 23.8 µM (inactive)
HL-60
  GI50: 30 µM (inactive)
IGROV-1
  GI50: 19.1 µM (inactive)
NCI-H522
  GI50: 16.1 µM (inactive)
OVCAR-8
  GI50: 37.8 µM (inactive)
OVCAR-3
  GI50: 29.5 µM (inactive)
RPMI-8226
  GI50: 17.7 µM (inactive)
NCI/ADR-RES
  GI50: 29.2 µM (inactive)
COLO 205
  GI50: 16.9 µM (inactive)
UACC-62
  GI50: 13.7 µM (inactive)
LOX IMVI
  GI50: 18.6 µM (inactive)
NCI-H23
  GI50: 26.6 µM (inactive)
U-251
  GI50: 18.3 µM (inactive)
OVCAR-5
  GI50: 26.2 µM (inactive)
OVCAR-4
  GI50: 1.77 µM (inactive)
HCT-116
  GI50: 19.3 µM (inactive)
SF-539
  GI50: 23 µM (inactive)
NCI-H460
  GI50: 23.9 µM (inactive)
DU-145
  GI50: 46.5 µM (inactive)
SW-620
  GI50: 24.4 µM (inactive)
PC-3
  GI50: 16.6 µM (inactive)
BT-549
  GI50: 31.6 µM (inactive)
A549
  GI50: 23.3 µM (inactive)
Malme-3M
  GI50: 24.2 µM (inactive)
SK-OV-3
  GI50: 26.4 µM (inactive)
MCF7
  GI50: 29.9 µM (inactive)
MDA-N
  GI50: 18.8 µM (inactive)
HT-29
  GI50: 20.8 µM (inactive)
RXF 393
  GI50: 23.1 µM (inactive)
SF-295
  GI50: 17.8 µM (inactive)
MDA-MB-435
  GI50: 19 µM (inactive)
SR
  GI50: 17.3 µM (inactive)
HOP-92
  GI50: 10.8 µM (inactive)
SN12C
  GI50: 16.9 µM (inactive)
786-0
  GI50: 30.8 µM (inactive)
SNB-19
  GI50: 16.1 µM (inactive)
HOP-62
  GI50: 23 µM (inactive)
UACC-257
  GI50: 20.6 µM (inactive)
M14
  GI50: 26 µM (inactive)
HCC 2998
  GI50: 16.1 µM (inactive)
UO-31
  GI50: 27.4 µM (inactive)
CAKI-1
  GI50: 28.2 µM (inactive)
NCI-H226
  GI50: 16.6 µM (inactive)
EKVX
  GI50: 17.1 µM (inactive)
SK-MEL-5
  GI50: 16.1 µM (inactive)
KM12
  GI50: 24.9 µM (inactive)
ACHN
  GI50: 24.2 µM (inactive)
SK-MEL-2
  GI50: 18.2 µM (inactive)
SF-268
  GI50: 32.2 µM (inactive)
MOLT-4
  GI50: 19.1 µM (inactive)
K562
  GI50: 19.4 µM (inactive)
HCT-15
  GI50: 18.9 µM
Hs-578T
  GI50: 19.9 µM (inactive)
CCRF-CEM
  GI50: 20.1 µM (inactive)
TK-10
  GI50: 22.4 µM (inactive)
